Test system: Pol II
Assay: Pol II ChIP-seq, promoter-proximal pausing in HEK293T cells
Format: cell-based, human
Description: FIG. 2. Small molecule disruption of SEC increases promoter-proximal pausing. (A) SEC inhibitors increase Pol II occupancy near the transcription start sites (TSS) of the HSPA8 and SRSF4 genes. Pol II ChIP-seq was performed in HEK293T cells with 20 μM SEC inhibitors KL-1 and KL-2 for 6 hr. […] (B) Heatmap analysis of Pol II occupancy at SEC-occupied genes in cells treated with KL-1 and KL-2. SEC inhibition results in increased Pol II occupancy at promoter-proximal regions of genes occupied by SEC. Rows are sorted by Pol II occupancy in the DMSO condition and metaplots of Pol II occupancy are shown at the bottom. Corresponding AFF1 and AFF4 occupancy (rpm) in the vehicle-treated condition is shown. […] The pausing index is calculated based on the ratio of Pol II occupancy around the TSS to Pol II occupancy in the gene body. […]
Chromatin Immunoprecipitation Sequencing. […] ChIP-seq reads were aligned to the Drosophila genome (UCSC dm3) or human genome (UCSC hgl9). Alignments were processed with Bowtie version 1.1.2, allowing only uniquely mapping reads with up to two mismatches within the 50 bp read. The resulting reads were extended to 150 bp toward the interior of the sequenced fragment and normalized to total reads aligned (reads per million, r.p.m.). […] P-values were calculated with a two-sided Kolmogorov-Smirnov test. […]

SMILES: COc1cccc(C(=O)CC(=O)C(=O)Nc2cc(Cl)ccc2C)c1 [KL-1, N-(5-chloro-2-methylphenyl)-4-oxo-4-(3-methoxyphenyl)-2-oxobutanamide]
- promoter-proximal pausing (pausing index, ECDF): could increase promoter-proximal pausing
- Pol II occupancy at promoter-proximal regions (20 μM, 6 hr, HSPA8 and SRSF4 loci): increased Pol II occupancy at the promoter-proximal regions

Source: US11453640B2, “Small molecules for disrupting the super elongation complex and inhibiting transcription elongation for cancer therapy” (NORTHWESTERN UNIVERSITY, priority 2018, dated 2022)
